pEC50, pIC50: −log10 of the molar value.
Legend:
[1] = system: IL-6 levels in human whole blood stimulated with a TLR2 agonist; assay: IRAK4 Whole Blood Assay (lipoteichoic acid/TLR2-stimulated IL-6); format: cell-based; conditions: lipoteichoic acid 10 μg/mL, IL-6 readout
Summary of the method: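 ACD-A-anticoagulated human whole blood was preincubated with compounds for 60 min at 37 °C under 5% CO2. It was then stimulated with 10 μg/mL lipoteichoic acid (final) in RPMI for 5 h. IL-6 in plasma supernatants was measured by flow cytometry bead assay.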

[2] = Caco Permeability Assay; format: in vitro ADME; conditions: human, Caco-2, Caco-2 cells, 3 μM compound
[3] = target: IRAK4 (Homo sapiens (Human), UniProt Q9NWZ3); assay: IRAK4 Inhibition Assay; format: biochemical; conditions: ATP 500 μM; IRAK4 0.6 nM
Summary of the method: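 Mobility-shift readout: phosphorylated and unphosphorylated fluorescent peptide (1.5 μM) resolved by electrophoresis after a 60 min room-temperature reaction stopped with EDTA. Reaction holds 0.6 nM IRAK4, 500 μM ATP and 1.6% DMSO in HEPES pH 7.2/MgCl2/Brij 35/DTT buffer; percent inhibition set against vehicle and no-enzyme controls.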

Sequence of IRAK4 (Q9NWZ3 whole entry): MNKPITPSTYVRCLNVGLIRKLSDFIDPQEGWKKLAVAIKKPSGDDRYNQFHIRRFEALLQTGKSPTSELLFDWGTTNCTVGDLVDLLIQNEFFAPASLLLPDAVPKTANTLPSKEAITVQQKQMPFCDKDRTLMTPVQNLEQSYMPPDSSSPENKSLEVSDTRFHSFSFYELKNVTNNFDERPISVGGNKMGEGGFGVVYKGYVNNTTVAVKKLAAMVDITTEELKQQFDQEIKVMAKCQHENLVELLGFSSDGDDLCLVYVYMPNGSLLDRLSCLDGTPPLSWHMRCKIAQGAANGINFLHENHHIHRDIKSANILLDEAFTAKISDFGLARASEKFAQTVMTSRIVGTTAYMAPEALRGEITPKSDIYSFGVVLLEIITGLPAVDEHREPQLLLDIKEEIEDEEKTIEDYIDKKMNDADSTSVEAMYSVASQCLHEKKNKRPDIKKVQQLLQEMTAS

| Compound | pEC50 ([1]; Homo sapiens) | Papp at 2 h, 3 µM [2] [nm/s] | pIC50 [3] | pEC50 [1] |
| --- | --- | --- | --- | --- |
| CC(C)(O)[C@H](F)CNC(=O)c1cnc(-c2cnc3cc(Cl)cnn23)cc1NC1CCOCC1 [Example 143, (R)-6-(7-chloroimidazo[1,2-b]pyridazin-3-yl)-N-(2-fluoro-3-hydroxy-3-methylbutyl)-4-((tetrahydro-2H-pyran-4-yl)amino)nicotinamide] | 5.97 | 82 | 8.70 |  |
| CC(C)(O)[C@H](F)CNC(=O)c1cnc(-c2cnc3cc(Cl)cnn23)cc1NC1CC1 [Example 144, (R)-6-(7-chloroimidazo[1,2-b]pyridazin-3-yl)-4-(cyclopropylamino)-N-(2-fluoro-3-hydroxy-3-methylbutyl)nicotinamide] | 6.64 | 134 | 8.52 |  |
| CC(C)Nc1cc(-c2cnc3cc(C#N)cnn23)ncc1C(=O)NC[C@@H](F)C(C)(C)O [Example 145, (R)-6-(7-cyanoimidazo[1,2-b]pyridazin-3-yl)-N-(2-fluoro-3-hydroxy-3-methylbutyl)-4-(isopropylamino)nicotinamide] | 6.62 | 123 | 8.70 |  |
| CC(C)(O)[C@H](F)CNC(=O)c1cnc(-c2cnc3cc(C#N)cnn23)cc1NC1CCOCC1 [Example 146, (R)-6-(7-cyanoimidazo[1,2-b]pyridazin-3-yl)-N-(2-fluoro-3-hydroxy-3-methylbutyl)-4-((tetrahydro-2H-pyran-4-yl)amino)nicotinamide] | 6.82 | < 15 | 8.70 |  |
| CC(C)(O)[C@H](F)CNC(=O)c1cnc(-c2cnc3cc(C#N)cnn23)cc1NC1COC1 [Example 147, (R)-6-(7-cyanoimidazo[1,2-b]pyridazin-3-yl)-N-(2-fluoro-3-hydroxy-3-methylbutyl)-4-(oxetan-3-ylamino) nicotinamide] | 7.05 | < 15 | 8.52 |  |
| Cc1cnn2c(-c3cc(NC(C)C)c(C(=O)NC[C@@H](F)C(C)(C)O)cn3)cnc2c1 [Example 148, (R)—N-(2-fluoro-3-hydroxy-3-methylbutyl)-4-(isopropylamino)-6-(7-methylimidazo[1,2-b]pyridazin-3-yl)nicotinamide] | 6.46 | 89 | 8.15 |  |

Now from value to molecule:

| pEC50 ([1]; Homo sapiens) | Papp at 2 h, 3 µM [2] [nm/s] | pIC50 [3] | pEC50 [1] | Compound |
| --- | --- | --- | --- | --- |
| 6.06 | 148 | 8.30 |  | CC[C@H](F)CNc1cc(-c2cnn3cc(Cl)cnc23)ncc1C(=O)NC[C@@H](F)C(C)(C)O [Example 158, 6-(6-chloropyrazolo[1,5-a]pyrimidin-3-yl)-N—((R)-2-fluoro-3-hydroxy-3-methylbutyl)-4-(((S)-2-fluorobutyl)amino)nicotinamide] |
|  | 153 | 8.22 | 6.21 | CC(C)(O)[C@H](F)CNC(=O)c1cnc(-c2cnn3cc(Cl)cnc23)cc1NCCC(F)(F)F [Example 161, (R)-6-(6-chloropyrazolo[1,5-a]pyrimidin-3-yl)-N-(2-fluoro-3-hydroxy-3-methylbutyl)-4-((3,3,3-trifluoropropyl)amino)nicotinamide] |
| 6.12 | 191 | 8.22 |  | CC(C)(O)[C@H](F)CNC(=O)c1cnc(-c2cnn3cc(Cl)cnc23)cc1NCC(F)F [Example 163, (R)-6-(6-chloropyrazolo[1,5-a]pyrimidin-3-yl)-4-((2,2-difluoroethyl)amino)-N-(2-fluoro-3-hydroxy-3-methylbutyl) nicotinamide] |
| 6.57 | < 15 | 7.96 |  | CC(C)(O)[C@H](F)CNC(=O)c1cnc(-c2cnn3cc(Cl)cnc23)cc1NCCCO [Example 164, (R)-6-(6-chloropyrazolo[1,5-a]pyrimidin-3-yl)-N-(2-fluoro-3-hydroxy-3-methylbutyl)-4-((3-hydroxypropyl)amino)nicotinamide] |
| 6.19 | 142 | 8.10 |  | CC(C)Nc1cc(-c2cnn3cc(C#N)cnc23)ncc1C(=O)NCCC(C)(C)C#N [Example 169, N-(3-cyano-3-methylbutyl)-6-(6-cyanopyrazolo[1,5-a]pyrimidin-3-yl)-4-(isopropylamino)nicotinamide] |

Reference: patent US10618903B2, “Heteroaryl substituted aminopyridine compounds” (BRISTOL-MYERS SQUIBB COMPANY, priority 2015, dated 2020)
